Measured values published in publication PMC6286348, “Inhibitor binding mode and allosteric regulation of Na^+-glucose symporters” (Nature Communications, 2018).
Numbering of substitutions follows the chain as printed.

How the values were obtained:
hSGLT2 wild-type [1] = target: T1, hSGLT2 wild-type (Homo sapiens, UniProt P31639); conditions: cited from earlier work
T1 sequence (P31639 1-672): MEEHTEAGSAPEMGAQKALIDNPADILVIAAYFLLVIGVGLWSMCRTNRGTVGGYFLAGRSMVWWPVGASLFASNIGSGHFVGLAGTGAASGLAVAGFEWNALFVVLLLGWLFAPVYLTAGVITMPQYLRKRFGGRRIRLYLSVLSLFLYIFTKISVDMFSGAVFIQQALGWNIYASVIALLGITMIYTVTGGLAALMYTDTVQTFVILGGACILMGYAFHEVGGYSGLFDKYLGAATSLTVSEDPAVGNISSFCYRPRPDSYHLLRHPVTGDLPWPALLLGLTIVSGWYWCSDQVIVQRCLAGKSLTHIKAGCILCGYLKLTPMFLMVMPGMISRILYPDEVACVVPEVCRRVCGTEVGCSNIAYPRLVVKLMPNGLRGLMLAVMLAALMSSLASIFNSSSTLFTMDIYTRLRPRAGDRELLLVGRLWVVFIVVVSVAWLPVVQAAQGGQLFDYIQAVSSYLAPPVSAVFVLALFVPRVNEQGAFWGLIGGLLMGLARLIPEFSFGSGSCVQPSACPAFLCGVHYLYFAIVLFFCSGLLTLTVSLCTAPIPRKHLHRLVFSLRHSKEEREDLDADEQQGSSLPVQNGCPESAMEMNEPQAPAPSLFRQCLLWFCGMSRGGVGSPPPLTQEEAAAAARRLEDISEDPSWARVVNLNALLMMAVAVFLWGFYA
T1 sequence (Q13113 1-114 partner): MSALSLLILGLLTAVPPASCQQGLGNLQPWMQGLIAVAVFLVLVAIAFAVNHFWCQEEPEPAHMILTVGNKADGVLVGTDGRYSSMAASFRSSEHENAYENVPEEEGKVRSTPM

hSGLT1 D268H = target: T2, hSGLT1 D268H (Homo sapiens, UniProt P13866, D268H); experiment: SGLT current measurement in oocytes, hSGLT1 D268H; assay type: cell-based; conditions: D268H vs wild type
T2 construct: expressed in transfected cells; host or cells: Xenopus laevis oocytes injected with cRNA
T2 sequence (P13866 1-664 D268H): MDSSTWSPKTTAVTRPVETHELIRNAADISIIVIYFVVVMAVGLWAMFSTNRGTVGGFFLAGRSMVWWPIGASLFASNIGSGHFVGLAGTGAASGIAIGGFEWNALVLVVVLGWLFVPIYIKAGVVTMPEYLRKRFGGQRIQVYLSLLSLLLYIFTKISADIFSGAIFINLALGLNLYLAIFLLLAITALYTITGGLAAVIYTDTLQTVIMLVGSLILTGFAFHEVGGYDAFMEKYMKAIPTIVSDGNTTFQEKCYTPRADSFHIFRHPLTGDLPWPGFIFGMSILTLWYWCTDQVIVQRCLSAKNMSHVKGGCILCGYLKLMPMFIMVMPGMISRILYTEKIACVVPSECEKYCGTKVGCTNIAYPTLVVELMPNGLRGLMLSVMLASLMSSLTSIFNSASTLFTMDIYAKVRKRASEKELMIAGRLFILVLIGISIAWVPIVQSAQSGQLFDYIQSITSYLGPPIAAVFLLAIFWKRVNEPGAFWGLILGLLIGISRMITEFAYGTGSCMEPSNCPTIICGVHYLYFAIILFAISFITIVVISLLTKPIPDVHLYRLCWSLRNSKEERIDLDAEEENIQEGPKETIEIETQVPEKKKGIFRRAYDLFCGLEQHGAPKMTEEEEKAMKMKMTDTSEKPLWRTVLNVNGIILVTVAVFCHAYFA
Procedure: (§1) Xenopus laevis (Nasco) oocytes (V–VI) were prepared as previously described[20] and injected with 50 nl of cRNA (1 μg/μl). […] Briefly, oocytes were incubated for 30 min in the presence of 50 μM αMDG (5 μM [^14C]αMDG) in a buffer containing (in mM) 100 NaCl, 2 KCl, 1 MgCl2, 1 CaCl2, and 10 N-(2-hydroxyethyl)piperazine-N′-(2-ethanesulfonic acid) (HEPES)/Tris (pH 7.5). After incubation, oocytes were rinsed thoroughly with ice-cold buffer containing (mM) 100 choline Cl^–, 2 KCl, 1 MgCl2, 1 CaCl2, and 10 HEPES/Tris (pH 7.5), individually lysed with 5% sodium dodecyl sulfate, and assayed for radioactivity.
(§2) Injected oocytes were incubated at 18 °C, and after 3–4 days, two electrode voltage clamp experiments were performed as previously described. Briefly, SGLT inward glucose currents were measured as a function of the external Na^+ (0–100 mM NaCl), sugar (0–100 mM αMDG), and inhibitors (0.001–100 μM). Steady-state and hSGLT1 capacitive currents were recorded using voltage steps from a holding voltage, Vh of −60 mV, to voltages in the range of −180 to +50 mV in 20 mV increments. The apparent affinity of αMDG, K0.5, was estimated from plots of the inward current as a function of the external αMDG concentration. […] The Na^+-to-αMDG stoichiometry was determined from the reversal potential measurements using the Gibbs free energy as previously described. […]

hSGLT2 A395T = target: T3, hSGLT2 A395T (Homo sapiens, UniProt P31639, A395T); experiment: cell-based; conditions: poor expression; n = 3 oocytes (n = 2 for dapa-aglycon)
T3 construct: expressed in transfected cells; host or cells: Xenopus laevis oocytes injected with hSGLT2 A395T cRNA and MAP17 cRNA
T3 sequence (P31639 whole entry A395T, one chain of several): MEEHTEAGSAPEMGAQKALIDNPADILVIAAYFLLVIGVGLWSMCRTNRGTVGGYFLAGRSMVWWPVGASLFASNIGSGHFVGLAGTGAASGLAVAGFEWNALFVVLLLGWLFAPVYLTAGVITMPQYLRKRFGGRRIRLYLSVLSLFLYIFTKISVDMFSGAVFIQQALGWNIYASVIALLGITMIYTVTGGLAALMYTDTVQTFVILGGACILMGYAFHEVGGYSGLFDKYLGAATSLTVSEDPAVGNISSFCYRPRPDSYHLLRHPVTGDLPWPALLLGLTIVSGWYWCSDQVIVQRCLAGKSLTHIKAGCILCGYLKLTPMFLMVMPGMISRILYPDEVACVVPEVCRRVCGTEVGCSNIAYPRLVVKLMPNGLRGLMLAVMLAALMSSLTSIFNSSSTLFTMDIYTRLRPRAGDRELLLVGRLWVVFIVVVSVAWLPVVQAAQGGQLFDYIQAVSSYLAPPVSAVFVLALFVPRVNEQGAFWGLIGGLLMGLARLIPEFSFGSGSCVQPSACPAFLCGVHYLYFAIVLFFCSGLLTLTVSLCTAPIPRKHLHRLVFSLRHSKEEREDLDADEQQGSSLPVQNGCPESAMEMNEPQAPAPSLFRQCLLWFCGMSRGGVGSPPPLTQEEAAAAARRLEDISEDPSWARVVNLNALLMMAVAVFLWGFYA
Procedure: as §1
(§3) Injected oocytes were incubated at 18 °C, and after 3–4 days, two electrode voltage clamp experiments were performed as previously described. Briefly, SGLT inward glucose currents were measured as a function of the external Na^+ (0–100 mM NaCl), sugar (0–100 mM αMDG), and inhibitors (0.001–100 μM). Steady-state and hSGLT1 capacitive currents were recorded using voltage steps from a holding voltage, Vh of −60 mV, to voltages in the range of −180 to +50 mV in 20 mV increments. The apparent affinity of αMDG, K0.5, was estimated from plots of the inward current as a function of the external αMDG concentration. Under our experimental conditions, K0.5 is a close approximation of the αMDG binding constant to the Na^+-bound outward conformation of SGLT. The apparent affinity for Na^+, K0.5, was estimated from plots of the αMDG inward current as a function of external Na^+ concentration. For hSGLT1 the interpretation of K0.5 is more complex owing to the presence of two Na^+ binding sites. In this case, the K0.5 is a lumped coefficient for Na^+ binding to the two sites in the outward-facing hSGLT1 conformation. […] The Na^+-to-αMDG stoichiometry was determined from the reversal potential measurements using the Gibbs free energy as previously described. The stoichiometry determinations were reinforced by estimates of αMDG and Na^+ Hill coefficients, and in some cases, by measurement of ^22Na and [^14C]αMDG uptakes under voltage clamp, [21].

hSGLT2 wild-type [2] = target: T1, hSGLT2 wild-type; experiment: SGLT current measurement in oocytes, hSGLT2 wild-type (MAP17 co-injected); assay type: cell-based; set-up: expressed in transfected cells; host or cells: Xenopus laevis oocytes injected with hSGLT2 cRNA and MAP17 cRNA; conditions: 22 °C
Procedure: as §1, §3

hSGLT1 T395A = target: T4, hSGLT1 T395A (Homo sapiens, UniProt P13866, T395A); experiment: SGLT current measurement in oocytes, hSGLT1 T395A; assay type: cell-based; conditions: effect on αMDG currents in 30 mM αMDG, 22 °C
T4 construct: expressed in transfected cells; host or cells: Xenopus laevis oocytes injected with cRNA
T4 sequence (P13866 1-664 T395A): T2 sequence (P13866 1-664 D268H) with H268D, T395A
Procedure: as §1, §2

hSGLT1 wild-type = target: T5, hSGLT1 wild-type (Homo sapiens, UniProt P13866); experiment: SGLT current measurement (two electrode voltage clamp) in oocytes, hSGLT1 wild-type; assay type: cell-based; conditions: inhibition of αMDG currents (100 mM NaCl) or capacitive currents, 22 °C
T5 construct: expressed in transfected cells; host or cells: Xenopus laevis oocytes injected with cRNA
T5 sequence (P13866 1-664): T2 sequence (P13866 1-664 D268H) with H268D
Procedure: as §1, §2

decrease of Ki vs wild-type hSGLT1 (hSGLT1 D268H) | SMILES | higher potency for hSGLT2 (vs hSGLT1) (hSGLT2 wild-type [1]) | Ki (hSGLT2 A395T) | Ki (hSGLT2 wild-type [2]) | Ki (hSGLT1 T395A) | Ki (hSGLT1 wild-type)
13 fold | CCOc1ccc(Cc2cc([C@@H]3O[C@H](CO)[C@@H](O)[C@H](O)[C@H]3O)ccc2Cl)cc1 [dapagliflozin] | > 100 fold | – | – | – | –
– | O=C(CCc1ccc(O)cc1)c1c(O)cc(O)cc1O [phloretin] | – | 129 ± 70 µM | 27 ± 3 µM | – | –
– | CCOc1ccc(Cc2cc(O)ccc2Cl)cc1 [dapa-aglycon] | – | > 600 µM | 110 ± 30 µM | 187 ± 80 µM | 425 ± 50 µM
